Measured values as given in US20180087086A1, “CELL EGRESS AND INVASION INHIBITORS AND THEIR USE AS ANTIPARASITICAL AGENTS” (THE JOHNS HOPKINS UNIVERSITY, priority 2015, published 2018).
Counter-ions that a name gives are not always drawn.

What was measured:
P. berghei sporozoites = experiment: trail radius of gliding sporozoites (ImageJ); type: cell-based; conditions: 62.5 μM; 130-150 trail radii; p-value <0.0001
Method: The trail radius was measured using ImageJ and the statistical analyses to determine standard error mean and t-test were performed using GraphPad.
The gliding phenotype was altered to determine whether the compounds were having off-target effects. While quantifying the number of deposited trails, the trail diameter in the presence of compounds was altered. An altered trail diameter is more likely due to either a direct effect on the motor or an effect on sporozoite shape. The diameter of the circular trails deposited by the parasites in the DMSO control was measured and in the presence of three compounds at 62.5 μM (FIG. 8). This concentration was chosen because at higher concentrations, there were not enough sporozoite trails to measure to do a statistical analysis of the results. Using ImageJ, circles were fit to trails in multiple images to measure 130-150 trail radii. The average trail radii increased in the presence of compounds 4, 17, and 18 with a p-value <0.0001. The increase in average trail size was 6.3 microns, 2.5 microns, and 3.6, for compounds 4, 17, and 18, respectively.

rabbit aldolase = molecular target: T1, rabbit aldolase (Oryctolagus cuniculus, UniProt P00883); experiment: aldolase enzyme activity assay, rabbit aldolase; type: biochemical; conditions: surrogate for human aldolase
T1 sequence (P00883 1-364): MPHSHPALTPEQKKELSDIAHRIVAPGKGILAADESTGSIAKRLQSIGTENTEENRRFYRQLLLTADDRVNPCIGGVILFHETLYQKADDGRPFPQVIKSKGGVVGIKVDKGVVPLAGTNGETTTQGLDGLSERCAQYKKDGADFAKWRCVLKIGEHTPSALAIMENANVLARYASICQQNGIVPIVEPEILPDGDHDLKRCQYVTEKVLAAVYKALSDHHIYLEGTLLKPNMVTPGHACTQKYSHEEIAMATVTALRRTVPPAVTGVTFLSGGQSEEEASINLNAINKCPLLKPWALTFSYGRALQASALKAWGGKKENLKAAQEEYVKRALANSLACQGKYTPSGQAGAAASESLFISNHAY
Source text: (§1) FIGS. 16A-16D depict an aldolase enzyme activity assay. (A) Cartoon and surface representation of aldolase with TRAPpep bound (magenta, sticks) (PDB entry 2pc4), overlapping the F16BP (green, sticks) substrate binding site (PDB entry 4ald), via PyMOL. (B) Coupled enzyme assay to measure aldolase activity via NADH consumption as measured at 340 nm. (C) Concentration-dependent effect of compounds on PfAldolase inhibition in the presence of PbTRAP peptide. Activity is normalized to the PbTRAP control, which reduces Vmax to 50% of enzyme without PbTRAP. (D) PfAldolase activity in the presence of compounds to determine direct inhibition of enzyme by the compounds. Activity is normalized to the PfAldolase control measured Vmax. Standard error means plotted for activity assays and standard deviation for SPR data.
(§2) Dose-Dependent Enzymatic Inhibition of Compounds on P. falciparum Aldolase and Rabbit Aldolase as a Surrogate for Human Aldolase.

[1] = molecular target: P. falciparum aldolase in the presence of TRAP (Plasmodium falciparum, UniProt Q7KQL9); experiment: aldolase enzyme activity assay, P. falciparum aldolase in the presence of TRAP; type: biochemical; conditions: in the presence of TRAP and the compounds
P. falciparum aldolase in the presence of TRAP, sequence (Q7KQL9 whole entry): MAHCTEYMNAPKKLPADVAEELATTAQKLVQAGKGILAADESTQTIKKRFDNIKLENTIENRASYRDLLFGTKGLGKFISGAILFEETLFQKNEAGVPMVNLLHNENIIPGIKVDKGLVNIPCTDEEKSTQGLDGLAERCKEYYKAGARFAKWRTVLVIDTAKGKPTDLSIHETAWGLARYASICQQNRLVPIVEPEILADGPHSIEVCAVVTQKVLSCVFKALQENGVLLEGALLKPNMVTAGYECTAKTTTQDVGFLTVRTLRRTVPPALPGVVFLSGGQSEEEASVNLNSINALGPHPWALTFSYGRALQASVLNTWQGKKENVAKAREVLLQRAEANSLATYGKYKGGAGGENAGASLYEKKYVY
Source text: as §1, §2

Compound | increase in average trail size (trail radius) vs DMSO control (P. berghei sporozoites) | enzyme inhibition on rabbit aldolase (rabbit aldolase) | inhibition of P. falciparum aldolase [1]
O=C(Nc1ccc(-c2nc3cc4ccccc4cc3[nH]2)cc1)c1cccc(Br)c1 [Compound 17, 3-bromo-N-[4-(1H-naphtho[2,3-d]imidazol-2-yl)phenyl]benzamide] | 2.5 microns |  | 
CCN(CC)S(=O)(=O)c1ccc(-c2csc(Nc3ccc(C)c(C)c3)n2)cc1 [Compound 3, 4-{2-[(3,4-dimethylphenyl)amino]-1,3-thiazol-4-yl}-N,N-diethylbenzenesulfonamide hydrobromide] |  | no enzyme inhibition | inhibited
